Reference: the NIST ThermoML archive (doi:10.1016/j.jct.2019.03.032)
± gives the expanded uncertainty stated by the source.

Settings: Metastable liquid, Gas chromatography

SMILES	vapor or sublimation pressure (298.15 K) [kPa]	vapor or sublimation pressure (310 K) [kPa]	vapor or sublimation pressure (320 K) [kPa]	vapor or sublimation pressure (330 K) [kPa]	vapor or sublimation pressure (340 K) [kPa]	vapor or sublimation pressure (350 K) [kPa]	vapor or sublimation pressure (360 K) [kPa]	vapor or sublimation pressure (370 K) [kPa]	vapor or sublimation pressure (380 K) [kPa]	vapor or sublimation pressure (390 K) [kPa]	vapor or sublimation pressure (400 K) [kPa]	vapor or sublimation pressure (410 K) [kPa]	vapor or sublimation pressure (420 K) [kPa]	vapor or sublimation pressure (430 K) [kPa]	vapor or sublimation pressure (440 K) [kPa]	vapor or sublimation pressure (450 K) [kPa]	vapor or sublimation pressure (460 K) [kPa]	vapor or sublimation pressure (470 K) [kPa]	vapor or sublimation pressure (480 K) [kPa]	vapor or sublimation pressure (490 K) [kPa]	also measured
CC(C)=CCC/C(C)=C/CC/C(C)=C/CC/C=C(\C)CC/C=C(\C)CCC=C(C)C	3.7e-10	3.1e-09	1.6e-08	7.5e-08	3.1e-07 ± 1.4e-07	1.2e-06	3.9e-06 ± 1.6e-06	1.2e-05 ± 4e-06	3.5e-05 ± 1.2e-05	9.3e-05 ± 7e-06	0.00023 ± 6e-05	0.00055 ± 0.00015	0.0012 ± 0.0002	0.0026 ± 0.0004	0.0053 ± 0.0009	0.01 ± 0.002	0.019 ± 0.002	0.035 ± 0.005	0.061 ± 0.007	0.1 ± 0.011	vapor or sublimation pressure (500 K): 0.17 ± 0.017 kPa; vapor or sublimation pressure (510 K): 0.27 ± 0.025 kPa; vapor or sublimation pressure (520 K): 0.42 ± 0.036 kPa; vapor or sublimation pressure (530 K): 0.63 ± 0.052 kPa; vapor or sublimation pressure (540 K): 0.94 ± 0.073 kPa; vapor or sublimation pressure (550 K): 1.4 ± 0.11 kPa; vapor or sublimation pressure (560 K): 2 ± 0.15 kPa; vapor or sublimation pressure (570 K): 2.8 ± 0.22 kPa; vapor or sublimation pressure (580 K): 3.8 ± 0.29 kPa; vapor or sublimation pressure (590 K): 5.1 ± 0.4 kPa; vapor or sublimation pressure (600 K): 6.9 ± 0.54 kPa; vapor or sublimation pressure (709.1 K): 101.33 ± 10 kPa
CC(C)CCCC(C)CCCC(C)CCCCC(C)CCCC(C)CCCC(C)C (centres undefined) [2,6,10,15,19,23-hexamethyltetracosane]	1.5e-09	1.2e-08	5.9e-08	2.6e-07	1e-06 ± 4e-07	3.5e-06 ± 1.4e-06	1.1e-05 ± 4e-06	3.4e-05 ± 1.2e-05	9.2e-05 ± 7e-06	0.00024 ± 6e-05	0.00057 ± 0.00015	0.0013 ± 0.0002	0.0028 ± 0.0006	0.0059 ± 0.0011	0.012 ± 0.002	0.022 ± 0.004	0.04 ± 0.005	0.071 ± 0.009	0.121 ± 0.015	0.2 ± 0.021	vapor or sublimation pressure (500 K): 0.32 ± 0.032 kPa; vapor or sublimation pressure (510 K): 0.51 ± 0.046 kPa; vapor or sublimation pressure (520 K): 0.78 ± 0.065 kPa; vapor or sublimation pressure (530 K): 1.2 ± 0.095 kPa; vapor or sublimation pressure (540 K): 1.7 ± 0.13 kPa; vapor or sublimation pressure (550 K): 2.5 ± 0.19 kPa; vapor or sublimation pressure (560 K): 3.5 ± 0.27 kPa; vapor or sublimation pressure (570 K): 4.8 ± 0.37 kPa; vapor or sublimation pressure (580 K): 6.6 ± 0.51 kPa; vapor or sublimation pressure (590 K): 8.9 ± 0.69 kPa; vapor or sublimation pressure (600 K): 12 ± 0.93 kPa; vapor or sublimation pressure (686.4 K): 101.33 ± 10 kPa
